Test [1] has as its system JAM-A (CD321). Kind of test: Flow cytometry of JAM-A (CD321) on the surface of HMEC-1 cells. It is filed as cell-based, human. The note with it: Tβ4 200 nM, TGF-β1 10 ng/ml or TNF-α 10 ng/mL, 24 hours. An excerpt: For the detection of JAM-A surface expression the cells were labeled with FITC anti-human CD321 (F11R) Mouse IgG1 Antibody (BioLegend, San Diego, Calif., USA) or with the FITC Mouse IgG1 Isotype Control Antibody (BioLegend) for the negative control. Labeled cells were washed to remove unbound antibodies, harvested with ice cold EDTA/PBS, fixed with BD CellFix (Becton Dickinson. Franklin Lakes, N.J., USA) and subsequently analyzed by FACS Canto II flow cytometer (Becton Dickinson). Upon excitation at 488 nm with an argon laser the emission of the fluorescence was recorded through selective band pass filter at 517 nm. Data were recorded with DIVA software, version 6.0 (Becton Dickinson) and subsequently analyzed using FCSalyzer software, version 0.9.14-alpha (https://sourceforge.net/projects/fcsalyzer/).
In general terms: A flow cytometer gives signals particle by particle.

For test [2], the system named is soluble JAM-A. Kind of test: ELISA of JAM-A antigen in plasma, murine 4T1 breast cancer model. The class given is in vivo, mouse. Conditions: 4T1 tumor-bearing BALB/c mice and control littermates; Tβ4 15 μg/kg or TGF-β1 5 μg/kg i.p., 21 days. As for the experimental part: All in vivo experiments were carried on female BALB/c mice aged 8 to 12 weeks purchased from Animal House of Institute of Biology, University of Bialystok (Bialystok, Poland). The mice were housed under standard conditions at the Animal House of the Medical University of Lodz (Lodz, Poland). All animal procedures and protocols were conducted in accordance with the Guide for the Care and Use of Laboratory Animals of the National Animal Care Committee and were approved by Local Ethical Committee for Animal Research in Lodz (license number 9/LB51/2017 from Jun. 2, 2017). All efforts were made to minimize animal suffering.
Murine 4T1 cells were purchased from the American Type Culture Collection (ATCC, Manassas, Va., USA). The cells were maintained in RPMI-1640 (ATCC) with 10/o fetal bovine serum (FBS) and cultured in tissue culture flasks to 80% confluence. […]
The unbound biotinylated antibody was washed away and HRP-conjugated streptavidin was added to the wells. […] Regarding the both protocols, the enzyme-substrate (HRP-TMB) reaction was terminated by the addition of a sulfuric acid solution and the color change was measured spectrophotometrically at a wavelenght of 450 nm using the Wallac 1420 VICTOR2 Multilabel Counter (PerkinElmer). The concentration of target antigen in the samples was determined by comparing the optical density of the samples to the standard curve.
In general terms: ELISA stands for enzyme-linked immunosorbent assay.

Test [3] relates to JAM-A mRNA. Kind of test: RT-PCR of JAM-A mRNA in HMEC-1 cells. It is filed as cell-based, human. Conditions: Tβ4 200 nM or TGF-β1 10 ng/mL.
Test [4] deals with JAM-A. Kind of test: Western blot of JAM-A protein in HMEC-1 cells. It is filed as cell-based, human. Conditions: Tβ4 200 nM or TGF-β1 10 ng/mL, 24-hours incubation. The protocol:
The cells were lysed with lysis buffer (1% Triton X-100 and 0.1% SDS in PBS) supplemented with Halt Protease Inhibitor Cocktail (Thermo Scientific, Waltham, Mass., USA). For the equalization between the samples before the semi-quantitative analyses the protein content of lysates was determined with the BCA Protein Assay Kit according to the manufacturer's protocol (Thermo Scientific). Cell lysate aliquots at a protein content of 50 μg per sample were boiled with 5× concentrated loading buffer (final concentrations: 50 mM Tris-HCl, pH 6.8, 8% glycerol, 2% SDS, 5% β-mercaptoethanol, 0.002% bromophenol blue), separated under reducing conditions on 4-20% gradient SDS-PAGE gels (Bio-Rad) and electroblotted (120 min, 200 mA, 4° C.) onto polyvinylidene difluoride (PVDF) membranes (Bio-Rad). The membranes were washed with Tris-buffered saline (TBS) and blocked for 2 hours with TBS containing 5% nonfat dry milk at room temperature. Then, the membranes were incubated overnight at 4° C. with an appropriate amount of primary antibody diluted in TBS containing 0.05% Tween 20 (TBST). The following primary antibodies were used: monoclonal rabbit anti-JAM-A (Abcam, Cambridge, UK) at a dilution of 1:500 and monoclonal mouse anti-GAPDH (R&D Systems, Minneapolis, Minn., USA) at a dilution of 1:1000. The membranes were washed several times with TBST and incubated for 1 hour at room temperature with the corresponding polyclonal anti-rabbit and anti-mouse HRP-conjugated secondary antibodies (Santa Cruz Biotechnology, Dallas, Tex., USA) at a 1:5000 dilution in TBST. Following the subsequent washes with TBST the membranes were further processed for chemiluminescent detection using Westar TiC ECL Substrate (Cyanagen, Bologna, Italy) and the images were documented by ChemiDoc MP Imager (Bio-Rad).
Background: In western blotting, separated proteins are transferred to a membrane and probed.

The values that follow come from patent publication US10537610B1, “Peptide for inhibition of cancer” (priority 2018, dated 2020).

As for tumor necrosis factor-α [TNF-α], the “JAM-A (CD321) level on the cell surface” value in test [1] was “triggered a minor increase of CD321 expression”.

Turning to Transforming growth factor-β1 [TGF-β1], in test [2], the “JAM-A level in plasma” value is “decreased the JAM-A plasma level”. Also, the “JAM-A (CD321) level on the cell surface” value in test [1] is given as “slightly decreased JAM-A level on the membrane of HMEC-1 cells”. In test [3], the “JAM-A expression on mRNA level” value is on record as “no observed changes of JAM-A expression on mRNA level”. Moreover, the “level of JAM-A protein” value in test [4] is “evidently reduced the level of JAM-A protein”.
